Measurements reported in ChEMBL document CHEMBL5726833, “Heterocyclic compounds useful as pim kinase inhibitors” (2018).

Experiments:
[1] = molecular target: Serine/threonine-protein kinase pim-3 (Homo sapiens, UniProt Q86V86); assay: (§1) Enzyme Assay: Pim-1 and Pim-3 kinase assays—20 μL reactions were run in white 384 well polystyrene plates dotted with 0.8 μL compound/DMSO in the assay buffer (50 mM Tris, pH 7.5, 0.01% Tween-20, 5 mM mgCl2, 0.01% BSA, 5 mM DTT), containing 0.05 μM Biotin-labeled BAD peptide substrate (AnaSpec 62269), 1 mM ATP, and 2.5 pM (Pim-1, Invitrogen PV3503) or 1.25 pM (Pim-3, Millipore 14-738) enzyme for 1 h at 25° C. Reactions were stopped by addition of 10 μL STOP Buffer (150 mM Tris, pH=7.5, 150 mM NaCl, 75 mM EDTA, 0.01% Tween-20, 0.3% BSA,) supplemented with Phospho-Bad (Ser112) Antibody (Cell Signaling 9291) diluted 666-fold, and Streptavidin donor beads (PerkinElmer 6760002) along with Protein-A acceptor beads (PerkinElmer 6760137) at […] each. Supplementation of the STOP buffer with beads and stopping the reactions were done under reduced light. Prior to the stopping reactions STOP buffer with beads was preincubated for 1 h in the dark at room temperature. After stopping the reactions, plates were incubated for 1 h in the dark at room temperature before reading on a PHERAstar FS plate reader (BMG Labtech) under reduced light.
[2] = molecular target: Serine/threonine-protein kinase pim-1 (Homo sapiens, UniProt P11309); assay: as §1
[3] = molecular target: Serine/threonine-protein kinase pim-2 (Homo sapiens, UniProt Q9P1W9); assay: Kinase Assay: Pim-2 kinase assay—20 μL reactions were run in white 384 well polystyrene plates dotted with 0.8 μL compound/DMSO in the assay buffer (50 mM Tris, pH 7.5, 0.01% Tween-20, 5 mM mgCl2, 0.01% BSA, 5 mM DTT), containing 0.05 μM Fluorescein-labeled CREBtide peptide substrate (Invitrogen PV3508), 1 mM ATP, and 1 nM enzyme (Invitrogen PV3649) for 2 h at 25° C. Reactions were stopped by addition of 10 μL TR-FRET Dilution Buffer (Invitrogen PV3574) with 30 mM EDTA and 1.5 nM LanthaScreen Tb-CREB pSer133 antibody (Invitrogen PV3566). After 30 min. incubation at room temperature, plates were read on a PHERAstar FS plate reader (BMG Labtech).
Sequence of Serine/threonine-protein kinase pim-2 (Q9P1W9 whole entry): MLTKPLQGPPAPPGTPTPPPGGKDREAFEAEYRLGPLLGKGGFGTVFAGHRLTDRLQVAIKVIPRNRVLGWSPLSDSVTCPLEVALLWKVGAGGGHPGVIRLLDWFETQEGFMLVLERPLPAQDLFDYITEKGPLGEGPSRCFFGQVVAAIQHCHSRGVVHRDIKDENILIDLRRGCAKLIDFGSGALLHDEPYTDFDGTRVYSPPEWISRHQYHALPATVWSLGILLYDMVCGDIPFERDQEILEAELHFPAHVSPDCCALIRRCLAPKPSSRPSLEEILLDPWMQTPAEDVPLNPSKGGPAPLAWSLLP

Sequence of Serine/threonine-protein kinase pim-1 (P11309 whole entry): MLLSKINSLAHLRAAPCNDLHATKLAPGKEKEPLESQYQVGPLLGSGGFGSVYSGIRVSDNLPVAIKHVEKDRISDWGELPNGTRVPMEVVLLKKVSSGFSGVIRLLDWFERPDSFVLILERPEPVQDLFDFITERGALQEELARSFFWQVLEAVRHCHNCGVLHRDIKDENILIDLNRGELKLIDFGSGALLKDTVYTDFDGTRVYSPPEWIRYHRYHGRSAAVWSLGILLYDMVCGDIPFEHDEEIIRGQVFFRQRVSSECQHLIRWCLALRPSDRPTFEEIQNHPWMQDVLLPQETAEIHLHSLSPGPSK

C[C@@H]1C[C@H](N)C[C@H](c2ccncc2NC(=O)c2ccc(F)c3cc(-c4c(F)cccc4F)cnc23)C1
IC50 [1]: < 10 nM
IC50 [2]: < 10 nM
IC50 [3]: < 100 nM
